In publication PMC13607727 (International Journal of Molecular Sciences, 2026):
Counter-ions that a name gives are not always drawn.

Legend:
Assay type in all cases: cell-based, SARS-CoV-2; human
[1] = molecular target: Omicron (BA.5) S-RBD/hACE2 (Severe acute respiratory syndrome coronavirus 2, UniProt P0DTC2, D405N/E484A/F486V/G339D/K417N/L452R/N440K/N501Y/Q498R/R408S/S371F/S373P/S375F/S477N/T376A/T478K/Y505H)
2019-nCoV S-RBD/hACE2 = 2019-nCoV S-RBD/hACE2 (Severe acute respiratory syndrome coronavirus 2, UniProt P0DTC2)
[2] = molecular target: Delta (B.1.617.2) S-RBD/hACE2 (Severe acute respiratory syndrome coronavirus 2, UniProt P0DTC2, L452R/T478K)

Compound	Effect on S-RBD/hACE2 colocalisation [1]	Effect on S-RBD/hACE2 colocalisation (2019-nCoV S-RBD/hACE2)	Effect on S-RBD/hACE2 colocalisation [2]
CCCCCCCCC=CCCCCCCCC(=O)OCC(C[N+](C)(C)C)OC(=O)CCCCCCCC=CCCCCCCCC (stereo not drawn) [DOTAP, DOTAP chloride]	reduced colocalisation to all three S-RBD variants in a concentration-dependent manner	reduced colocalisation to all three S-RBD variants in a concentration-dependent manner	reduced colocalisation to all three S-RBD variants in a concentration-dependent manner
CC(OC(=O)OC1CCCCC1)OC(=O)C1=C(CSc2nnnn2CC[NH+](C)C)CSC2C(NC(=O)Cc3csc(N)n3)C(=O)N12 (stereo not drawn) [CTM-HCl, cefotiam hexetil hydrochloride]	showed similar effects against all tested strains	showed similar effects against all tested strains	showed similar effects against all tested strains
